# Test results taken from PubChem BioAssay AID256 (DTP/NCI, 2004).
# Where “and” joins values, the source holds several entries; their conditions need not be identical. Equal entries are not always repeated. Inconclusive results and toxic doses are left out.
# Tested on: CD2F1 mice, L1210 leukemia ip, survival T/C
# Assay: NCI In Vivo Anticancer Drug Screen. Data for tumor model L1210 Leukemia (intraperitoneal) in CD2F1 (CDF1) mice
# Conditions: higher = longer survival
# How it was run: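 Mice carrying a transplanted tumor received test compound or vehicle alone. The value is the measurement in the treated group divided by that in the vehicle-treated control group.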
# [1] = endpoint: mean survival time, dose: 100.0 mg/kg/injection, schedule: Q01DX009 (ip), vehicle: saline with Tween-80
# [2] = endpoint: mean survival time, dose: 100.0 mg/kg/injection, schedule: Q04DX003 (ip), vehicle: saline with Tween-80
# [3] = endpoint: mean survival time, dose: 200.0 mg/kg/injection, schedule: Q01DX009 (ip), vehicle: saline with Tween-80
# [4] = endpoint: mean survival time, dose: 200.0 mg/kg/injection, schedule: Q04DX003 (ip), vehicle: saline with Tween-80
# [5] = endpoint: mean survival time, dose: 400.0 mg/kg/injection, schedule: Q01DX009 (ip), vehicle: saline with Tween-80
# [6] = endpoint: mean survival time, dose: 400.0 mg/kg/injection, schedule: Q04DX003 (ip), vehicle: saline with Tween-80
# [7] = endpoint: mean survival time, dose: 100.0 mg/kg/injection, schedule: Q01DX001 (ip), vehicle: saline
# [8] = endpoint: mean survival time, dose: 200.0 mg/kg/injection, schedule: Q01DX001 (ip), vehicle: saline
# [9] = endpoint: mean survival time, dose: 100.0 mg/kg/injection, schedule: Q04DX002 (ip), vehicle: saline
# [10] = endpoint: mean survival time, dose: 200.0 mg/kg/injection, schedule: Q04DX002 (ip), vehicle: saline
# [11] = endpoint: mean survival time, dose: 400.0 mg/kg/injection, schedule: Q04DX002 (ip), vehicle: saline
# [12] = endpoint: mean survival time, dose: 100.0 mg/kg/injection, schedule: Q01DX009 (ip), vehicle: saline
# [13] = endpoint: mean survival time, dose: 100.0 mg/kg/injection, schedule: Q04DX003 (ip), vehicle: saline
# [14] = endpoint: mean survival time, dose: 200.0 mg/kg/injection, schedule: Q01DX009 (ip), vehicle: saline
# [15] = endpoint: mean survival time, dose: 200.0 mg/kg/injection, schedule: Q04DX003 (ip), vehicle: saline
# [16] = endpoint: mean survival time, dose: 12.5 mg/kg/injection, schedule: Q01DX009 (ip), vehicle: saline
# [17] = endpoint: mean survival time, dose: 25.0 mg/kg/injection, schedule: Q01DX009 (ip), vehicle: saline
# [18] = endpoint: mean survival time, dose: 50.0 mg/kg/injection, schedule: Q01DX009 (ip), vehicle: saline
# [19] = endpoint: mean survival time, dose: 6.25 mg/kg/injection, schedule: Q01DX009 (ip), vehicle: saline with Tween-80
# [20] = endpoint: mean survival time, dose: 12.5 mg/kg/injection, schedule: Q01DX009 (ip), vehicle: saline with Tween-80
# [21] = endpoint: mean survival time, dose: 25.0 mg/kg/injection, schedule: Q01DX009 (ip), vehicle: saline with Tween-80
smiles,measurement,setting,value
O=C1c2ccccc2-c2ccc3c4ccc5c6c(ccc(c7ccc1c2c73)c64)C(=O)c1ccccc1-5,T/C,[1],89 % of control
same,T/C,[2],90 % of control
same,T/C,[3],89 % of control
same,T/C,[4],87 % of control
same,T/C,[5],93 % of control
same,T/C,[6],96 % of control
COc1cccc2c1C(=O)c1c(O)c3c(c(O)c1C2=O)C[C@@](O)(C(=O)CO)C[C@@H]3OC1CC(N(C)C)C(O)C(C)O1 (stereo not given in full),T/C,"endpoint: mean survival time, dose: 0.25 mg/kg/injection, schedule: Q01DX009 (ip), vehicle: saline",118 % of control and 108 % of control
same,T/C,"endpoint: mean survival time, dose: 0.5 mg/kg/injection, schedule: Q01DX009 (ip), vehicle: saline",117 % of control and 121 % of control
same,T/C,"endpoint: mean survival time, dose: 1.0 mg/kg/injection, schedule: Q01DX009 (ip), vehicle: saline",115 % of control and 124 % of control
same,T/C,"endpoint: mean survival time, dose: 2.0 mg/kg/injection, schedule: Q01DX009 (ip), vehicle: saline",97 % of control and 102 % of control
O=C(Oc1c(Cl)c(Cl)c(Cl)c(Cl)c1Cl)c1ccc([N+](=O)[O-])cc1,T/C,[1],101 % of control
same,T/C,[3],97 % of control
same,T/C,[5],95 % of control
O=C(O)/C=C(/Br)C(=O)O,T/C,[7],97 % of control
same,T/C,[8],108 % of control
CCCC(=O)c1ccc(C)cc1,T/C,[2],97 % of control
same,T/C,[6],88 % of control
CC(C)C1OCC(C)(C)C(C(C)C)O1 (stereo not given),T/C,[9],107 % of control
same,T/C,[10],110 % of control
same,T/C,[11],96 % of control
N#Cc1ccccc1C#N,T/C,"endpoint: mean survival time, dose: 25.0 mg/kg/injection, schedule: Q04DX003 (ip), vehicle: saline with Tween-80",97 % of control
CC(S)CN (stereo not given),T/C,[12],96 % of control
same,T/C,[13],101 % of control
same,T/C,[14],94 % of control
same,T/C,[15],98 % of control
same,T/C,"endpoint: mean survival time, dose: 400.0 mg/kg/injection, schedule: Q01DX009 (ip), vehicle: saline",101 % of control
same,T/C,"endpoint: mean survival time, dose: 400.0 mg/kg/injection, schedule: Q04DX003 (ip), vehicle: saline",104 % of control
S=P(N1CC1)(N1CC1)N1CC1.[Cl-].[Cl-].[NH2-].[NH2-].[Pt+4],T/C,"endpoint: mean survival time, dose: 0.78 mg/kg/injection, schedule: Q01DX009 (ip), vehicle: Klucel (hydroxypropylcellulose) (HPC)",112 % of control and 101 % of control
same,T/C,"endpoint: mean survival time, dose: 1.56 mg/kg/injection, schedule: Q01DX009 (ip), vehicle: Klucel (hydroxypropylcellulose) (HPC)",114 % of control and 115 % of control and 107 % of control
same,T/C,"endpoint: mean survival time, dose: 3.13 mg/kg/injection, schedule: Q01DX009 (ip), vehicle: Klucel (hydroxypropylcellulose) (HPC)",153 % of control
same,T/C,"endpoint: mean survival time, dose: 6.25 mg/kg/injection, schedule: Q01DX009 (ip), vehicle: Klucel (hydroxypropylcellulose) (HPC)",111 % of control
O=C(O)c1cccc(COc2ccc([N+](=O)[O-])cc2Cl)c1,T/C,[1],101 % of control
same,T/C,[2],91 % of control
same,T/C,[3],93 % of control
same,T/C,[4],86 % of control
same,T/C,[6],97 % of control
O=S(=O)(O)c1ccc(-c2ccc(S(=O)(=O)O)cc2)cc1,T/C,"endpoint: mean survival time, dose: 6.3 mg/kg/injection, schedule: Q01DX009 (ip), vehicle: saline",104 % of control
same,T/C,"endpoint: mean survival time, dose: 6.3 mg/kg/injection, schedule: Q04DX003 (ip), vehicle: saline",102 % of control
same,T/C,"endpoint: mean survival time, dose: 12.5 mg/kg/injection, schedule: Q01DX001 (ip), vehicle: saline",101 % of control
same,T/C,[16],104 % of control
same,T/C,"endpoint: mean survival time, dose: 12.5 mg/kg/injection, schedule: Q04DX003 (ip), vehicle: saline",100 % of control
same,T/C,"endpoint: mean survival time, dose: 25.0 mg/kg/injection, schedule: Q01DX001 (ip), vehicle: saline",103 % of control
same,T/C,[17],101 % of control
same,T/C,"endpoint: mean survival time, dose: 25.0 mg/kg/injection, schedule: Q04DX003 (ip), vehicle: saline",100 % of control
same,T/C,"endpoint: mean survival time, dose: 50.0 mg/kg/injection, schedule: Q01DX001 (ip), vehicle: saline",101 % of control
same,T/C,[18],104 % of control
same,T/C,"endpoint: mean survival time, dose: 50.0 mg/kg/injection, schedule: Q04DX003 (ip), vehicle: saline",93 % of control
same,T/C,[7],100 % of control and 108 % of control
same,T/C,[12],106 % of control
same,T/C,[13],103 % of control
same,T/C,[8],100 % of control and 105 % of control
same,T/C,[14],98 % of control
same,T/C,[15],100 % of control
same,T/C,"endpoint: mean survival time, dose: 400.0 mg/kg/injection, schedule: Q01DX001 (ip), vehicle: saline",104 % of control and 107 % of control
CCOC(=O)/C(C#N)=C1\CCCc2ccccc21,T/C,"endpoint: mean survival time, dose: 100.0 mg/kg/injection, schedule: Q04DX003 (ip), vehicle: acetone",94 % of control
same,T/C,"endpoint: mean survival time, dose: 200.0 mg/kg/injection, schedule: Q04DX003 (ip), vehicle: acetone",91 % of control
CC(C)(Nc1nc2c(ncn2C2OC(CO)C(O)C2O)c(=O)[nH]1)P(=O)(O)O (stereo not given),T/C,"endpoint: median survival time, dose: 12.5 mg/kg/injection, schedule: Q01DX005 (ip), vehicle: water",105 % of control
same,T/C,"endpoint: median survival time, dose: 25.0 mg/kg/injection, schedule: Q01DX005 (ip), vehicle: water",103 % of control
same,T/C,"endpoint: median survival time, dose: 50.0 mg/kg/injection, schedule: Q01DX005 (ip), vehicle: water",108 % of control
same,T/C,"endpoint: median survival time, dose: 100.0 mg/kg/injection, schedule: Q01DX005 (ip), vehicle: water",105 % of control
COC1=C(OC)C(=O)C(SCc2ccc(OC)cc2)=CC1=O,T/C,[19],102 % of control
same,T/C,[20],91 % of control
same,T/C,[21],87 % of control
CC1CC(C)(C)NC(CCC2CCCCC23OCCO3)O1 (stereo not given),T/C,"endpoint: mean survival time, dose: 100.0 mg/kg/injection, schedule: Q01DX001 (ip), vehicle: saline with Tween-80",107 % of control
same,T/C,"endpoint: mean survival time, dose: 200.0 mg/kg/injection, schedule: Q01DX001 (ip), vehicle: saline with Tween-80",105 % of control
same,T/C,"endpoint: mean survival time, dose: 400.0 mg/kg/injection, schedule: Q01DX001 (ip), vehicle: saline with Tween-80",97 % of control
COc1cc(NCc2ccccc2O)c2ncccc2c1,T/C,"endpoint: mean survival time, dose: 50.0 mg/kg/injection, schedule: Q04DX003 (ip), vehicle: saline with Tween-80",91 % of control
same,T/C,[2],91 % of control
same,T/C,[4],91 % of control
Cc1[nH]nc2c1CCCC2,T/C,"endpoint: mean survival time, dose: 100.0 mg/kg/injection, schedule: Q01DX009 (ip), vehicle: other",101 % of control
same,T/C,"endpoint: mean survival time, dose: 200.0 mg/kg/injection, schedule: Q01DX009 (ip), vehicle: other",97 % of control
CN(C)c1ccc(Cc2ccc(N(C)C)cc2)cc1,T/C,[2],96 % of control
same,T/C,[4],100 % of control
same,T/C,[6],93 % of control
CNc1nc(N)nc(CN2CCOCC2c2ccccn2)n1 (stereo not given),T/C,[9],88 % of control
same,T/C,[10],114 % of control
same,T/C,[11],96 % of control
O=NCC1(Cl)CC2C=CC1C2 (stereo not given),T/C,[19],97 % of control
same,T/C,[20],98 % of control
same,T/C,[21],98 % of control
COC(=O)c1c2ccccc2[n+](C)c2ccccc12,T/C,[16],95 % of control
same,T/C,[17],95 % of control
same,T/C,[18],100 % of control
same,T/C,[7],91 % of control
same,T/C,[8],96 % of control
CCOC(=O)/C(=C/[N-]c1ccccc1[N-]/C=C(\C(C)=O)C(=O)OCC)C(C)=O.[Pt+2],T/C,"endpoint: median survival time, dose: 10.0 mg/kg/injection, schedule: Q04DX003 (ip), vehicle: saline with Tween-80",98 % of control
same,T/C,"endpoint: median survival time, dose: 20.0 mg/kg/injection, schedule: Q04DX003 (ip), vehicle: saline with Tween-80",96 % of control
same,T/C,"endpoint: median survival time, dose: 40.0 mg/kg/injection, schedule: Q04DX003 (ip), vehicle: saline with Tween-80",89 % of control
same,T/C,"endpoint: median survival time, dose: 50.0 mg/kg/injection, schedule: Q04DX003 (ip), vehicle: saline with Tween-80",96 % of control
same,T/C,"endpoint: median survival time, dose: 80.0 mg/kg/injection, schedule: Q04DX003 (ip), vehicle: saline with Tween-80",101 % of control
same,T/C,"endpoint: median survival time, dose: 100.0 mg/kg/injection, schedule: Q04DX003 (ip), vehicle: saline with Tween-80",97 % of control
same,T/C,"endpoint: median survival time, dose: 200.0 mg/kg/injection, schedule: Q04DX003 (ip), vehicle: saline with Tween-80",101 % of control
N#CSCc1cc(Cl)c(CSC#N)c(Cl)c1Cl,T/C,"endpoint: mean survival time, dose: 75.0 mg/kg/injection, schedule: Q04DX003 (ip), vehicle: saline",101 % of control
same,T/C,"endpoint: mean survival time, dose: 150.0 mg/kg/injection, schedule: Q04DX003 (ip), vehicle: saline",96 % of control
same,T/C,"endpoint: mean survival time, dose: 300.0 mg/kg/injection, schedule: Q04DX003 (ip), vehicle: saline",97 % of control
COc1ccc(NC(=O)Nc2ccc(Br)cc2)cc1,T/C,[1],88 % of control
same,T/C,[2],96 % of control
same,T/C,[3],89 % of control
same,T/C,[4],98 % of control
same,T/C,[5],89 % of control
